ChEMBL document CHEMBL1155652, “Synthesis of the marine sponge cycloheptapeptide phakellistatin 5(1)” (2000)
Where a SMILES comes first, the peptide text is derived from it. [ ]: non-standard residue; d: D form.

Experiments:
Format in all cases: functional
SF-295 = assay: Growth inhibition of human SF295 cells
P388 = assay: Growth inhibition of mouse P388 cells
NCI-H460 = assay: Growth inhibition of human NCI-H460 cells
DU-145 = assay: Growth inhibition of human DU145 cells
KM-20L2 = assay: Growth inhibition of human KM20L2 cells
SK-MEL-5 = assay: Growth inhibition of human SK-MEL-5 cells
OVCAR-3 = assay: Growth inhibition of human OVCAR-3 cells

Row | GI50 (P388) | GI50 (NCI-H460) | GI50 (DU-145) | GI50 (SK-MEL-5) | GI50 (OVCAR-3) | Compound | GI50 (SF-295) | GI50 (KM-20L2)
1 | > 10 µg/mL | > 10 µg/mL | > 10 µg/mL | > 10 µg/mL | > 10 µg/mL | CC[C@H](C)[C@@H]1NC(=O)[C@H](C)NC(=O)[C@H](CCSC)NC(=O)[C@H](C)NC(=O)[C@@H](CC(N)=O)NC(=O)[C@H](Cc2ccccc2)NC(=O)[C@@H]2CCCN2C1=O [(R)-ASN-PHAKELLISTATIN 5] (cyclo(AIPF[dN]AM)) | > 10 µg/mL | > 10 µg/mL
2 | > 10 µg/mL | > 10 µg/mL | > 10 µg/mL | > 10 µg/mL | > 10 µg/mL | CC[C@H](C)[C@@H]1NC(=O)[C@H](C)NC(=O)[C@H](CCSC)NC(=O)[C@H](C)NC(=O)[C@H](CC(N)=O)NC(=O)[C@H](Cc2ccccc2)NC(=O)[C@@H]2CCCN2C1=O [(S)-ASN-PHAKELLISTATIN 5] (cyclo(AIPFNAM)) | > 10 µg/mL | > 10 µg/mL
